tested on: Glomerella lagenarium (Colletotrichum lagenarium); assay: Fungicidal activity against Glomerella lagenarium (Colletotrichum lagenarium) liquid culture / cucumber / preventative (anthracnose); assay type: cell-based; conditions: Colletotrichum orbiculare; 20 ppm in the applied formulation; liquid culture (PDB), growth inhibition measured photometrically after 3 to 4 days; compared to untreated control; read-out: disease control
Experimental: Mycelia fragments or conidia suspensions of a fungus prepared either freshly from liquid cultures of the fungus or from cryogenic storage, are directly mixed into nutrient broth. DMSO solutions of the test compound (max. 10 mg/ml) are diluted with 0.025% Tween20 by a factor of 50 and 10 μl of this solution is pipetted into a microtiter plate (96-well format). The nutrient broth containing the fungal spores/mycelia fragments is then added to give an end concentration of the tested compound. The test plates are incubated in the dark at 24° C. and 96% relative humidity. The inhibition of fungal growth is determined photometrically after 2 to 7 days, depending on the pathosystem, and percent antifungal activity relative to the untreated check is calculated.
Fungicidal activity against Glomerella lagenarium (Colletotrichum lagenarium) liquid culture/cucumber/Preventative (Anthracnose)
Conidia of the fungus from cryogenic storage are directly mixed into nutrient broth (PDB—potato dextrose broth). After placing a (DMSO) solution of test compound into a microtiter plate (96-well format), the nutrient broth containing the fungal spores is added.
The following compounds at 20 ppm in the applied formulation give at least 80% disease control in this test when compared to untreated control under the same conditions, which show extensive disease development.

SMILES | inhibition of growth at 20 ppm [%]
CCCON(Cc1ccc(-c2noc(C(F)(F)F)n2)cc1)C(=O)C1CC1(F)F (stereo not drawn) [Compound 1.286, 2,2-difluoro-N-propoxy-N-[[4-[5-(trifluoromethyl)-1,2,4-oxadiazol-3-yl]phenyl]methyl]-cyclopropane-carboxamide] | ≥ 80
CCCON(Cc1ccc(-c2noc(C(F)(F)F)n2)cc1)C(=O)CCC [Compound 1.288, N-propoxy-N-[[4-[5-(trifluoromethyl)-1,2,4-oxadiazol-3-yl]phenyl]methyl]-butanamide] | ≥ 80
CCCON(Cc1ccc(-c2noc(C(F)(F)F)n2)cc1)C(=O)CC1CC1 [Compound 1.289, 2-cyclopropyl-N-propoxy-N-[[4-[5-(trifluoromethyl)-1,2,4-oxadiazol-3-yl]phenyl]methyl]-acetamide] | ≥ 80
CCCON(Cc1ccc(-c2noc(C(F)(F)F)n2)cc1)C(=O)C1CCCC1 [Compound 1.290, N-propoxy-N-[[4-[5-(trifluoromethyl)-1,2,4-oxadiazol-3-yl]phenyl]methyl]-cyclopentane-carboxamide] | ≥ 80
CCCON(Cc1ccc(-c2noc(C(F)(F)F)n2)cc1)C(=O)C1=CCCC1 [Compound 1.291, N-propoxy-N-[[4-[5-(trifiuoromethyl)-1,2,4-oxadiazol-3-yl]phenyl]methyl]-cyclopentene-1-carboxamide] | ≥ 80
CCCON(Cc1ccc(-c2noc(C(F)(F)F)n2)cc1)C(=O)C1CSC1 [Compound 1.292, N-propoxy-N-[[4-[5-(trifluoromethyl)-1,2,4-oxadiazol-3-yl]pheny1]methyl]-thietane-3-carboxamide] | ≥ 80
CCCON(Cc1ccc(-c2noc(C(F)(F)F)n2)cc1)C(=O)CCOC [Compound 1.293, 3-methoxy-N-propoxy-N-[[4-[5-(trifluoromethyl)-1,2,4-oxadiazol-3-yl]phenyl]methyl]-propanamide] | ≥ 80
CCCON(Cc1ccc(-c2noc(C(F)(F)F)n2)cc1)C(=O)CC(C)C [Compound 1.294, 3-methyl-N-propoxy-N-[[4-[5-(trifluoromethyl)-1,2,4-oxadiazol-3-yl]phenyl]methyl]-butanamide] | ≥ 80
CCCON(Cc1ccc(-c2noc(C(F)(F)F)n2)cc1)C(=O)C1CCC1 [Compound 1.295, N-propoxy-N-[[4-[5-(trifluoromethyl)-1,2,4-oxadiazol-3-yl]phenyl]methyl]-cyclobutane-carboxamide] | ≥ 80
CCCON(Cc1ccc(-c2noc(C(F)(F)F)n2)cc1)C(=O)COCC [Compound 1.297, 2-ethoxy-N-propoxy-N-[[4-[5-(trifluoromethyl)-1,2.4-oxadiazol-3-yl]phenyl]methyl]-acetamide] | ≥ 80
CCCON(Cc1ccc(-c2noc(C(F)(F)F)n2)cc1)C(=O)C1CC1C (stereo not drawn) [Compound 1.299, 2-methyl-N-propoxy-N-[[4-[5-(trifluoromethyl)-1,2,4-oxadiazol-3-yl]phenyl]methyl]-cyclopropane-carboxamide] | ≥ 80
C=CC(=O)N(Cc1ccc(-c2noc(C(F)(F)F)n2)cc1)OCCC [Compound 1.301, N-propoxy-N-[[4-[5-(trifluoromethyl)-1,2,4-oxadiazol-3-yl]phenyl]methyl]-prop-2-enamide] | ≥ 80
CCCON(Cc1ccc(-c2noc(C(F)(F)F)n2)cc1)C(=O)C1(C)CC1 [Compound 1.302, 1-methyl-N-propoxy-N-[[4-[5-(trifluoromethyl)-1,2,4-oxadiazol-3-yl]phenyl]methyl]-cyclopropane-carboxamide] | ≥ 80
CCCON(Cc1ccc(-c2noc(C(F)(F)F)n2)cc1)C(=O)CC [Compound 1.303, N-propoxy-N-[[4-[5-(trifluoromethyl)-1,2,4-oxadiazol-3-yl]phenyl]methyl]-propanamide] | ≥ 80
C=C(C)C(=O)N(Cc1ccc(-c2noc(C(F)(F)F)n2)cc1)OCCC [Compound 1.304, 2-methyl-N-propoxy-N-[[4-[5-(trifluoromethyl)-1,2,4-oxadiazol-3-yl]phenyl]methyl]-prop-2-enamide] | ≥ 80
CCCON(Cc1ccc(-c2noc(C(F)(F)F)n2)cc1)C(=O)C1(F)CC1 [Compound 1.307, 1-fluoro-N-propoxy-N-[[4-[5-(trifluoromethyl)-1,2,4-oxadiazol-3-yl]phenyl]methyl]-cyclopropane-carboxamide] | ≥ 80
CCCON(Cc1ccc(-c2noc(C(F)(F)F)n2)cc1)C(=O)C=CC(C)=O [Compound 1.310, 4-oxo-N-propoxy-N-[[4-[5-(trifluoromethyl)-1,2,4-oxadiazol-3-yl]phenyl]methyl]-pent-2-enamide] | ≥ 80

SMILES | inhibition of growth at 20 ppm [%]
CCCON(Cc1ccc(-c2noc(C(F)(F)F)n2)cc1)C(=O)C(CC)COC (stereo not drawn) [Compound 1.311, 2-(methoxymethyl)-N-propoxy-N-[[4-[5-(trifluoromethyl)-1,2,4-oxadiazol-3-yl]phenyl]methyl]-butanamide] | ≥ 80
CCCON(Cc1ccc(-c2noc(C(F)(F)F)n2)cc1)C(=O)CC(F)(F)F [Compound 1.318, 3,3,3-trifluoro-N-propoxy-N-[[4-[5-(trifluoromethyl)-1,2,4-oxadiazol-3-yl]phenyl]methyl]-propanamide] | ≥ 80
CCCON(Cc1ccc(-c2noc(C(F)(F)F)n2)cc1)C(=O)C1CC1 [Compound 1.319, N-propoxy-N-[[4-[5-(trifluoromethyl)-1,2,4-oxadiazol-3-yl]phenyl]methyl]-cyclopropane-carboxamide] | ≥ 80
CCCON(Cc1ccc(-c2noc(C(F)(F)F)n2)cc1)C(=O)CCCOC [Compound 1.321, 4-methoxy-N-propoxy-N-[[4-[5-(trifluoromethyl)-1,2,4-oxadiazol-3-yl]phenyl]methyl]-butanamide] | ≥ 80
CCCCC(=O)N(Cc1ccc(-c2noc(C(F)(F)F)n2)cc1)OCCC [Compound 1.322, N-propoxy-N-[[4-[5-(trifluoromethyl)-1,2,4-oxadiazol-3-yl]phenyl]methyl]-pentanamide] | ≥ 80
C=CC(=O)N(CCOC)Cc1ccc(-c2noc(C(F)(F)F)n2)cc1 [Compound 1.343, N-(2-methoxyethyl)-N-[[4-[5-(trifluoromethyl)-1,2,4-oxadiazol-3-yl]phenyl]methyl]prop-2-enamide] | ≥ 80
CCC(C)N(Cc1ccc(-c2noc(C(F)(F)F)n2)cc1)C(=O)CC(C)C (stereo not drawn) [Compound 1.380, 3-methyl-N-sec-butyl-N-[[4-[5-(trifluoromethyl)-1,2,4-oxadiazol-3-yl]phenyl]methyl]-butanamide] | ≥ 80
CCC(C)N(Cc1ccc(-c2noc(C(F)(F)F)n2)cc1)C(=O)C1CCC1 (stereo not drawn) [Compound 1.381, N-sec-butyl-N-[[4-[5-(trifluoromethyl)-1,2,4-oxadiazol-3-yl]phenyl]methyl]-cyclobutane-carboxamide] | ≥ 80
CCC(C)N(Cc1ccc(-c2noc(C(F)(F)F)n2)cc1)C(=O)C=CC(F)(F)F (stereo not drawn) [Compound 1.382, 4,4,4-trifluoro-N-sec-butyl-N-[[4-[5-(trifluoromethyl)-1,2,4-oxadiazol-3-yl]phenyl]methyl]but-2-enamide] | ≥ 80
CCC(C)N(Cc1ccc(-c2noc(C(F)(F)F)n2)cc1)C(=O)C1CC1C (stereo not drawn) [Compound 1.385, 2-methyl-N-sec-butyl-N-[[4-[5-(trifluoromethyl)-1,2,4-oxadiazol-3-yl]phenyl]methyl]-cyclopropane-carboxamide] | ≥ 80
CCC(C)N(Cc1ccc(-c2noc(C(F)(F)F)n2)cc1)C(=O)C1(F)CC1 (stereo not drawn) [Compound 1.393, 1-fluoro-N-sec-butyl-N-[[4-[5-(trifluoromethyl)-1,2,4-oxadiazol-3-yl]phenyl]methyl]-cyclopropane-carboxamide] | ≥ 80
CCC(C)C(=O)N(Cc1ccc(-c2noc(C(F)(F)F)n2)cc1)C(C)CC (stereo not drawn) [Compound 1.394, 2-methyl-N-sec-butyl-N-[[4-[5-(trifluoromethyl)-1,2,4-oxadiazol-3-yl]phenyl]methyl]-butanamide] | ≥ 80
CCC(COC)C(=O)N(Cc1ccc(-c2noc(C(F)(F)F)n2)cc1)C(C)CC (stereo not drawn) [Compound 1.397, 2-(methoxymethyl)-N-sec-butyl-N-[[4-[5-(trifluoromethyl)-1,2,4-oxadiazol-3-yl]phenyl]methyl]-butanamide] | ≥ 80
CCCCC(=O)N(Cc1ccc(-c2noc(C(F)(F)F)n2)cc1)C(C)CC (stereo not drawn) [Compound 1.409, N-sec-butyl-N-[[4-[5-(trifluoromethyl)-1,2,4-oxadiazol-3-yl]phenyl]methyl]-pentanamide] | ≥ 80
O=C(C1CCCC1)N(Cc1ccc(-c2noc(C(F)(F)F)n2)cc1)CC1CCCO1 (stereo not drawn) [Compound 1.419, N-(tetrahydrofuran-2-ylmethyl)-N-[[4-[5-(trifluoromethyl)-1,2,4-oxadiazol-3-yl]phenyl]methyl]-cyclopentane-carboxamide] | ≥ 80
O=C(C1=CCCC1)N(Cc1ccc(-c2noc(C(F)(F)F)n2)cc1)CC1CCCO1 (stereo not drawn) [Compound 1.420, N-(tetrahydrofuran-2-ylmethyl)-N-[[4-[5-(trifluoromethyl)-1,2,4-oxadiazol-3-yl]phenyl]methyl]-cyclopentene-1-carboxamide] | ≥ 80

From US11180462B2, “Microbiocidal oxadiazole derivatives” (SYNGENTA PARTICIPATIONS AG, priority 2015, dated 2021)
